Calls of active or inactive are those of the source. The rule behind the calls is not given here.
Experiments:
[1] = tested on: NUGC-3; test: Antiproliferative activity against human NUGC3 cells at 0.3 uM by SRB assay; assay type: functional
[2] = tested on: NUGC-3; test: Antiproliferative activity against human NUGC3 cells at 0.1 uM by SRB assay; assay type: functional
[3] = tested on: NUGC-3; test: Antiproliferative activity against human NUGC3 cells at 1 uM by SRB assay; assay type: functional
[4] = tested on: NUGC-3; test: Antiproliferative activity against human NUGC3 cells at 10 uM by SRB assay; assay type: functional
[5] = tested on: NUGC-3; test: Antiproliferative activity against human NUGC3 cells at 3 uM by SRB assay; assay type: functional
[6] = tested on: MDA-MB-231; test: Antiproliferative activity against human MDA-MB-231 cells at 0.1 uM by SRB assay; assay type: functional
[7] = tested on: MDA-MB-231; test: Antiproliferative activity against human MDA-MB-231 cells at 0.3 uM by SRB assay; assay type: functional
[8] = tested on: MDA-MB-231; test: Antiproliferative activity against human MDA-MB-231 cells at 1 uM by SRB assay; assay type: functional
[9] = tested on: MDA-MB-231; test: Antiproliferative activity against human MDA-MB-231 cells at 10 uM by SRB assay; assay type: functional
[10] = tested on: MDA-MB-231; test: Antiproliferative activity against human MDA-MB-231 cells at 3 uM by SRB assay; assay type: functional
[11] = tested on: ACHN; test: Antiproliferative activity against human ACHN cells at 0.1 uM by SRB assay; assay type: functional
[12] = tested on: ACHN; test: Antiproliferative activity against human ACHN cells at 1 uM by SRB assay; assay type: functional
[13] = tested on: ACHN; test: Antiproliferative activity against human ACHN cells at 0.3 uM by SRB assay; assay type: functional
[14] = tested on: ACHN; test: Antiproliferative activity against human ACHN cells at 3 uM by SRB assay; assay type: functional
[15] = tested on: ACHN; test: Antiproliferative activity against human ACHN cells at 10 uM by SRB assay; assay type: functional
[16] = tested on: NCI-H23; test: Antiproliferative activity against human NCI-H23 cells at 0.3 uM by SRB assay; assay type: functional
[17] = tested on: NCI-H23; test: Antiproliferative activity against human NCI-H23 cells at 0.1 uM by SRB assay; assay type: functional
[18] = tested on: NCI-H23; test: Antiproliferative activity against human NCI-H23 cells at 3 uM by SRB assay; assay type: functional
[19] = tested on: NCI-H23; test: Antiproliferative activity against human NCI-H23 cells at 1 uM by SRB assay; assay type: functional
[20] = tested on: NCI-H23; test: Antiproliferative activity against human NCI-H23 cells at 10 uM by SRB assay; assay type: functional
[21] = tested on: PC-3; test: Antiproliferative activity against human PC3 cells at 0.1 uM by SRB assay; assay type: functional
[22] = tested on: PC-3; test: Antiproliferative activity against human PC3 cells at 1 uM by SRB assay; assay type: functional
[23] = tested on: PC-3; test: Antiproliferative activity against human PC3 cells at 0.3 uM by SRB assay; assay type: functional
[24] = tested on: PC-3; test: Antiproliferative activity against human PC3 cells at 3 uM by SRB assay; assay type: functional
[25] = tested on: HCT-15; test: Antiproliferative activity against human HCT15 cells at 0.1 uM by SRB assay; assay type: functional
[26] = tested on: PC-3; test: Antiproliferative activity against human PC3 cells at 10 uM by SRB assay; assay type: functional
[27] = tested on: HCT-15; test: Antiproliferative activity against human HCT15 cells at 0.3 uM by SRB assay; assay type: functional
[28] = tested on: HCT-15; test: Antiproliferative activity against human HCT15 cells at 3 uM by SRB assay; assay type: functional
[29] = tested on: HCT-15; test: Antiproliferative activity against human HCT15 cells at 1 uM by SRB assay; assay type: functional
[30] = tested on: HCT-15; test: Antiproliferative activity against human HCT15 cells at 10 uM by SRB assay; assay type: functional
[31] = molecular target: Rho-related GTP-binding protein RhoB (Homo sapiens) (UniProt P62745); test: Inhibition of RhoB transactivation in human HeLa cells by luciferase reporter assay; assay type: cell-based
Rho-related GTP-binding protein RhoB (Homo sapiens), sequence (P62745 whole entry): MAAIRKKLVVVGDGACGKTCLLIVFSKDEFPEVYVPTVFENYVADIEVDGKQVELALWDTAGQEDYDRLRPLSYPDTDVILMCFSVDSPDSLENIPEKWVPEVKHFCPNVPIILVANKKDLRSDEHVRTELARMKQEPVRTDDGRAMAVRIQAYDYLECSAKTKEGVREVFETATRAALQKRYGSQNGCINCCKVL

[32] = molecular target: Rho-related GTP-binding protein RhoB (Homo sapiens) (UniProt P62745); test: Transactivation of RhoB in human HeLa cells by luciferase reporter assay; assay type: cell-based
[33] = tested on: NCI-H23; test: Antiproliferative activity against human NCI-H23 cells by SRB assay; assay type: functional
[34] = tested on: NUGC-3; test: Antiproliferative activity against human NUGC3 cells by SRB assay; assay type: functional
[35] = tested on: HCT-15; test: Antiproliferative activity against human HCT15 cells by SRB assay; assay type: functional
[36] = tested on: ACHN; test: Antiproliferative activity against human ACHN cells by SRB assay; assay type: functional
[37] = tested on: MDA-MB-231; test: Antiproliferative activity against human MDA-MB-231 cells by SRB assay; assay type: functional
[38] = tested on: PC-3; test: Antiproliferative activity against human PC3 cells by SRB assay; assay type: functional

CCCCCCCCCCCCCCCCCC(=O)N(C)CC[N+](C)(C)C showed a growth, % of control at 0.3 µM [1] of 49%, a growth, % of control at 0.1 µM [2] of 77.9% and a growth, % of control at 1 µM [3] of 10.4%. The growth, % of control at 10 µM [4] was -18.7%, the growth, % of control at 3 µM [5] was 2.4% and the growth, % of control at 0.1 µM [6] was 90.6%. It also gave a growth, % of control at 0.3 µM [7] of 84.2%, a growth, % of control at 1 µM [8] of 77.2% and a growth, % of control at 10 µM [9] of 12.8%. For the same molecule, the growth, % of control at 3 µM [10] was 37%, the growth, % of control at 0.1 µM [11] was 81.8% and the growth, % of control at 1 µM [12] was 44.6%. For the same molecule, the growth, % of control at 0.3 µM [13] was 71.3%, the growth, % of control at 3 µM [14] was 23.4% and the growth, % of control at 10 µM [15] was -15.6%. It also gave a growth, % of control at 0.3 µM [16] of 90.2%, a growth, % of control at 0.1 µM [17] of 94.3% and a growth, % of control at 3 µM [18] of 51.6%. The growth, % of control at 1 µM [19] was 84.4%, the growth, % of control at 10 µM [20] was 11.1% and the growth, % of control at 0.1 µM [21] was 93.2%. For the same molecule, the growth, % of control at 1 µM [22] was 39.3%, the growth, % of control at 0.3 µM [23] was 91.9% and the growth, % of control at 3 µM [24] was 1.1%. It also gave a growth, % of control at 0.1 µM [25] of 92.9%, a growth, % of control at 10 µM [26] of -11.6% and a growth, % of control at 0.3 µM [27] of 98.6%. For the same molecule, the growth, % of control at 3 µM [28] was 25.4%, the growth, % of control at 1 µM [29] was 61.4% and the growth, % of control at 10 µM [30] was 20.5%. The inhibition [31] was “Active”, the Activity [32] was “Active” and the GI50 [33] was 1520 nM. For the same molecule, the GI50 [34] was 140 nM, the GI50 [35] was 800 nM and the GI50 [36] was 360 nM. The GI50 [37] was 1070 nM and the GI50 [38] was 420 nM.

Molecule CCCCCCCCCCCCCCCCCC(=O)NCCC[N+](C)(C)C has a growth, % of control at 0.3 µM [1] of 93%, a growth, % of control at 0.1 µM [2] of 98.4% and a growth, % of control at 1 µM [3] of 63.8%. The growth, % of control at 10 µM [4] was 15.3%, the growth, % of control at 3 µM [5] was 37.7% and the growth, % of control at 0.1 µM [6] was 96%. For the same molecule, the growth, % of control at 0.3 µM [7] was 98.1%, the growth, % of control at 1 µM [8] was 92.5% and the growth, % of control at 10 µM [9] was 29.9%. It also gave a growth, % of control at 3 µM [10] of 59.9%, a growth, % of control at 0.1 µM [11] of 99.2% and a growth, % of control at 1 µM [12] of 85%. For the same molecule, the growth, % of control at 0.3 µM [13] was 101%, the growth, % of control at 3 µM [14] was 64.3% and the growth, % of control at 10 µM [15] was 42.8%. The growth, % of control at 0.3 µM [16] was 103%, the growth, % of control at 0.1 µM [17] was 102% and the growth, % of control at 3 µM [18] was 56.5%. The growth, % of control at 1 µM [19] was 90.7%, the growth, % of control at 10 µM [20] was 5.43% and the growth, % of control at 0.1 µM [21] was 97.5%. It also gave a growth, % of control at 1 µM [22] of 51.3%, a growth, % of control at 0.3 µM [23] of 97.7% and a growth, % of control at 3 µM [24] of 3.63%. For the same molecule, the growth, % of control at 0.1 µM [25] was 90.7%, the growth, % of control at 10 µM [26] was -14.7% and the growth, % of control at 0.3 µM [27] was 86.5%. For the same molecule, the growth, % of control at 3 µM [28] was 30.8%, the growth, % of control at 1 µM [29] was 64.3% and the growth, % of control at 10 µM [30] was 11.2%. The inhibition [31] was “Active”, the Activity [32] was “Active” and the GI50 [33] was 1680 nM. The GI50 [34] was 970 nM, the GI50 [35] was 790 nM and the GI50 [36] was 3400 nM. The GI50 [37] was 2410 nM and the GI50 [38] was 520 nM.

In the case of CCCCCCCCCCCCCCCC(=O)NCCC[N+](C)(C)C, the growth, % of control at 0.3 µM [1] is reported as 109%, the growth, % of control at 0.1 µM [2] is reported as 112% and the growth, % of control at 1 µM [3] is reported as 72.8%. It also gave a growth, % of control at 10 µM [4] of 20.1%, a growth, % of control at 3 µM [5] of 34.9% and a growth, % of control at 0.1 µM [6] of 101%. It also gave a growth, % of control at 0.3 µM [7] of 98.3%, a growth, % of control at 1 µM [8] of 96.6% and a growth, % of control at 10 µM [9] of 25.1%. The growth, % of control at 3 µM [10] was 61.6%, the growth, % of control at 0.1 µM [11] was 97% and the growth, % of control at 1 µM [12] was 91.8%. It also gave a growth, % of control at 0.3 µM [13] of 94.4%, a growth, % of control at 3 µM [14] of 66% and a growth, % of control at 10 µM [15] of 42.5%. For the same molecule, the growth, % of control at 0.3 µM [16] was 104%, the growth, % of control at 0.1 µM [17] was 106% and the growth, % of control at 3 µM [18] was 67.8%. The growth, % of control at 1 µM [19] was 93%, the growth, % of control at 10 µM [20] was 18.3% and the growth, % of control at 0.1 µM [21] was 90.6%. It also gave a growth, % of control at 1 µM [22] of 62.6%, a growth, % of control at 0.3 µM [23] of 85.2% and a growth, % of control at 3 µM [24] of 19.1%. It also gave a growth, % of control at 0.1 µM [25] of 110%, a growth, % of control at 10 µM [26] of -1.77% and a growth, % of control at 0.3 µM [27] of 104%. It also gave a growth, % of control at 3 µM [28] of 71.1%, a growth, % of control at 1 µM [29] of 97.4% and a growth, % of control at 10 µM [30] of 26.1%. For the same molecule, the Activity [32] was “Active”, the GI50 [33] was 2150 nM and the GI50 [34] was 1070 nM. It also gave a GI50 [35] of 2560 nM, a GI50 [36] of 3360 nM and a GI50 [37] of 2180 nM. It also gave a GI50 [38] of 600 nM.

Reference: ChEMBL document CHEMBL2380247, “Synthesis and biological evaluation of novel aliphatic amido-quaternary ammonium salts for anticancer chemotherapy: part II” (2013)
